Reference: the supplement of paper PMC11451515

System: SEM cells
Experiment: cell viability relative to DMSO control; higher = less cytotoxic
Conditions: 48 h
Summary of the method: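 Cells were incubated for 48 h at 37°C before CellTiter-Glo One luminescence was read. The cells were NOMO1 or SEM (500 cells/well) or P12-Ichikawa (1000 cells/well) leukemia cells, adapted for at least four passages in each medium and seeded in 1536-well plates (5 μl). Dosing used library compounds in DMSO applied by pin over 11 threefold points, 47 μM to 0.79 nM. Viability is the per-plate percentage of DMSO wells, with cell-free wells as background.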

CC(C)C[C@H](NC(=O)[C@@H](O)[C@H](N)Cc1ccccc1)C(=O)O
cell viability (HPLM + 10% dialyzed FBS, 0.000781 µM): 86%
cell viability (HPLM + 10% dialyzed FBS, 0.00234 µM): 122%
cell viability (HPLM + 10% dialyzed FBS, 0.00702 µM): 121%
cell viability (HPLM + 10% dialyzed FBS, 0.0211 µM): 131%
cell viability (HPLM + 10% dialyzed FBS, 0.0632 µM): 136%
cell viability (HPLM + 10% dialyzed FBS, 0.19 µM): 119%
cell viability (HPLM + 10% dialyzed FBS, 0.569 µM): 114%
cell viability (HPLM + 10% dialyzed FBS, 1.71 µM): 128%
cell viability (HPLM + 10% dialyzed FBS, 5.12 µM): 120%
cell viability (HPLM + 10% dialyzed FBS, 15.4 µM): 114%
cell viability (HPLM + 10% dialyzed FBS, 46.1 µM): 10.7%
cell viability (RPMI 5 mM glucose + 10% FBS, 0.000781 µM): 59.2%
cell viability (RPMI 5 mM glucose + 10% FBS, 0.00234 µM): 122%
cell viability (RPMI 5 mM glucose + 10% FBS, 0.00702 µM): 127%
cell viability (RPMI 5 mM glucose + 10% FBS, 0.0211 µM): 123%
cell viability (RPMI 5 mM glucose + 10% FBS, 0.0632 µM): 133%
cell viability (RPMI 5 mM glucose + 10% FBS, 0.19 µM): 115%
cell viability (RPMI 5 mM glucose + 10% FBS, 0.569 µM): 118%
cell viability (RPMI 5 mM glucose + 10% FBS, 1.71 µM): 121%
cell viability (RPMI 5 mM glucose + 10% FBS, 5.12 µM): 109%
cell viability (RPMI 5 mM glucose + 10% FBS, 15.4 µM): 117%
cell viability (RPMI 5 mM glucose + 10% FBS, 46.1 µM): 8.04%
cell viability (RPMI 5 mM glucose + 10% dialyzed FBS, 0.000781 µM): 62.3%
cell viability (RPMI 5 mM glucose + 10% dialyzed FBS, 0.00234 µM): 119%
cell viability (RPMI 5 mM glucose + 10% dialyzed FBS, 0.00702 µM): 136%
cell viability (RPMI 5 mM glucose + 10% dialyzed FBS, 0.0211 µM): 135%
cell viability (RPMI 5 mM glucose + 10% dialyzed FBS, 0.0632 µM): 129%
cell viability (RPMI 5 mM glucose + 10% dialyzed FBS, 0.19 µM): 123%
cell viability (RPMI 5 mM glucose + 10% dialyzed FBS, 0.569 µM): 127%
cell viability (RPMI 5 mM glucose + 10% dialyzed FBS, 1.71 µM): 132%
cell viability (RPMI 5 mM glucose + 10% dialyzed FBS, 5.12 µM): 131%
cell viability (RPMI 5 mM glucose + 10% dialyzed FBS, 15.4 µM): 116%
cell viability (RPMI 5 mM glucose + 10% dialyzed FBS, 46.1 µM): 13.2%
